Experimental findings from US8293770B2, “Pyrrolidine derivatives as NK-3 receptor antagonists” (Hoffmann-La Roche Inc., priority 2008, dated 2012) are described below.

The target of the test is T1, recombinant human NK3 receptor (Homo sapiens, UniProt P29371).
T1 construct: expressed in transfected cells; host or cells: HEK293 cells (transient expression), membranes
T1 sequence (P29371 1-465): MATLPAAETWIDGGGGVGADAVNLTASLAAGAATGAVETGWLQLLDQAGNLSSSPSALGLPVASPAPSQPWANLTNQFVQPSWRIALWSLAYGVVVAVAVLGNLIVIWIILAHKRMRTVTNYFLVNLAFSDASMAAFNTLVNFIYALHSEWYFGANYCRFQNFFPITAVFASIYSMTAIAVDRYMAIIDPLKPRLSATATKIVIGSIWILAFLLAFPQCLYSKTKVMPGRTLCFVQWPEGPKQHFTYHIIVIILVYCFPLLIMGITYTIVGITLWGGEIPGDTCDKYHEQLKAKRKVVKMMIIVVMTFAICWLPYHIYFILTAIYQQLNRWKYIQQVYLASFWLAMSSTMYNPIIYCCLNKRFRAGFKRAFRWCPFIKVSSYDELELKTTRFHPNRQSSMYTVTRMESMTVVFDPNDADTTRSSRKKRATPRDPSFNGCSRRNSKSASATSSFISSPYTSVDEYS
Description: [3H]SR142801 competition binding assay. Particulars: hNK3 receptor binding, [3H]SR142801, membranes from HEK293 cells transiently expressing recombinant human NK3 receptor. The procedure: [^3H]SR142801 competition binding assay
hNK3 receptor binding experiment were performed using [^3H]SR142801 (Catalog No. TRK1035, specific activity: 74.0 Ci/mmol, Amersham, GE Healthcare UK limited, Buckinghamshire, UK) and membrane isolated from HEK293 cells transiently expressing recombinant human NK3 receptor. After thawing, the membrane homogenates were centrifuged at 48,000×g for 10 min at 4° C., the pellets were resuspended in the 50 mM Tris-HCl, 4 mM MnCl2, 1 μM phosphoramidon, 0.1% BSA binding buffer at pH 7.4 to a final assay concentration of 5 μg protein/well. […] At the end of the incubation, membranes were filtered onto unitfilter (96-well white microplate with bonded GF/C filter preincubated 1 h in 0.3% PEI+0.3% BSA, Packard BioScience, Meriden, Conn.) with a Filtermate 196 harvester (Packard BioScience) and washed 4 times with ice-cold 50 mM Tris-HCl, pH 7.4 buffer. Nonspecific binding was measured in the presence of 10 μM SB222200 for both radioligands. The radioactivity on the filter was counted (5 min) on a Packard Top-count microplate scintillation counter with quenching correction after addition of 45 μl of microscint 40 (Canberra Packard S. A., Zürich, Switzerland) and shaking for 1 h. Inhibition curves were fitted according to the Hill equation: y=100/(1+(x/IC50)^nH), where nH=slope factor using Excel-fit 4 software (Microsoft). IC50 values were derived from the inhibition curve and the affinity constant (Ki) values were calculated using the Cheng-Prussoff equation Ki=IC50/(1+[L]/KD) where [L] is the concentration of radioligand and KD is its dissociation constant at the receptor, derived from the saturation isotherm. All experiments were performed in duplicate and the mean±standard error (SEM) of the individual Ki values was calculated.

By Ki is commonly meant a measure of affinity in units of concentration, obtained from inhibition or displacement. Take `CN(Cc1ccc(C(F)(F)F)c(F)c1)[C@H]1CN(C(=O)c2ccc(C#N)cc2)C[C@@H]1c1ccc(Cl)c(Cl)c1` (racemic) [Example 6, 4-{(3SR,4RS)-3-(3,4-Dichloro-phenyl)-4-[(3-fluoro-4-trifluoromethyl-benzyl)-methyl-amino]-pyrrolidine-1-carbonyl}-benzonitrile]: the inhibition constant Ki was 20.9 nM.
For the compound `CN(Cc1ccc(C(F)(F)F)c(F)c1)[C@H]1CN(C(=O)c2cccc(C#N)c2)C[C@@H]1c1ccc(Cl)c(Cl)c1` (racemic) [Example 9, 3-{(3SR,4RS)-3-(3,4-Dichloro-phenyl)-4-[(3-fluoro-4-trifluoromethyl-benzyl)-methyl-amino]-pyrrolidine-1-carbonyl}-benzonitrile], the Ki worked out at 47.4 nM.
`CN(Cc1ccc(C(F)(F)F)c(F)c1)[C@H]1CN(C(=O)c2ccc3c(c2)OCO3)C[C@@H]1c1ccc(Cl)c(Cl)c1` (racemic) [Example 17, Benzo[1,3]dioxol-5-yl-{(3SR,4RS)-3-(3,4-dichloro-phenyl)-4-[(3-fluoro-4-trifluoromethyl-benzyl)-methyl-amino]-pyrrolidin-1-yl}-methanone]: the inhibition constant Ki was 38.3 nM.
Next, `CN(Cc1ccc(C#N)c(F)c1)[C@H]1CN(C(=O)c2ccc(C#N)cc2)C[C@@H]1c1ccc(Cl)c(Cl)c1` (racemic) [Example 18, 4-({[(3RS,4SR)-1-(4-Cyano-benzoyl)-4-(3,4-dichloro-phenyl)-pyrrolidin-3-yl]-methyl-amino}-methyl)-2-fluoro-benzonitrile]: 42 nM; `CN(Cc1ccc(C(F)(F)F)c(F)c1)[C@H]1CN(C(=O)c2ccc(C#N)cc2F)C[C@@H]1c1ccc(Cl)c(Cl)c1` (racemic) [Example 19, 4-{(3SR,4RS)-3-(3,4-Dichloro-phenyl)-4-[(3-fluoro-4-trifluoromethyl-benzyl)-methyl-amino]-pyrrolidine-1-carbonyl}-3-fluoro-benzonitrile]: 12.9 nM; `CN(Cc1ccc(C(F)(F)F)c(F)c1)[C@H]1CN(C(=O)c2cc(S(C)(=O)=O)ccc2F)C[C@@H]1c1ccc(Cl)c(Cl)c1` (racemic) [Example 20, {(3SR,4RS)-3-(3,4-Dichloro-phenyl)-4-[(3-fluoro-4-trifluoromethyl-benzyl)-methyl-amino]-pyrrolidin-1-yl}-(2-fluoro-5-methanesulfonyl-phenyl)-methanone]: 41.7 nM.
Take `CN(Cc1ccc(C(F)(F)F)c(F)c1)[C@H]1CN(C(=O)c2ccc(S(C)(=O)=O)cc2)C[C@@H]1c1ccc(Cl)c(Cl)c1` (racemic) [Example 22, {(3SR,4RS)-3-(3,4-Dichloro-phenyl)-4-[(3-fluoro-4-trifluoromethyl-benzyl)-methyl-amino]-pyrrolidin-1-yl}-(4-methanesulfonyl-phenyl)-methanone]: the Ki was found to be 30.2 nM.
Take `Cc1cc(C(=O)N2C[C@H](c3ccc(Cl)c(Cl)c3)[C@@H](N(C)Cc3ccc(C(F)(F)F)c(F)c3)C2)ccc1C#N` (racemic) [Example 23, 4-{(3SR,4RS)-3-(3,4-Dichloro-phenyl)-4-[(3-fluoro-4-trifluoromethyl-benzyl)-methyl-amino]-pyrrolidine-1-carbonyl}-2-methyl-benzonitrile]: the Ki was 6.6 nM.
Next, `CC(=O)c1ccc(C(=O)N2C[C@H](c3ccc(Cl)c(Cl)c3)[C@@H](N(C)Cc3ccc(C(F)(F)F)c(F)c3)C2)cc1` (racemic) [Example 24, 1-(4-{(3SR,4RS)-3-(3,4-Dichloro-phenyl)-4-[(3-fluoro-4-trifluoromethyl-benzyl)-methyl-amino]-pyrrolidine-1-carbonyl}-phenyl)-ethanone]: 6.8 nM; `Cc1ccc(C(=O)N2C[C@H](c3ccc(Cl)c(Cl)c3)[C@@H](N(C)Cc3ccc(C(F)(F)F)c(F)c3)C2)cn1` (racemic) [Example 25, {(3SR,4RS)-3-(3,4-Dichloro-phenyl)-4-[(3-fluoro-4-trifluoromethyl-benzyl)-methyl-amino]-pyrrolidin-1-yl}-(6-methyl-pyridin-3-yl)-methanone]: 15.2 nM.
Next, `CN(Cc1ccc(C(F)(F)F)c(F)c1)[C@H]1CN(C(=O)c2ccc(C#N)nc2)C[C@@H]1c1ccc(Cl)c(Cl)c1` (racemic) [Example 26, 5-{(3SR,4RS)-3-(3,4-Dichloro-phenyl)-4-[(3-fluoro-4-trifluoromethyl-benzyl)-methyl-amino]-pyrrolidine-1-carbonyl}-pyridine-2-carbonitrile]: 14.8 nM.
The figure for `CN(Cc1ccc(C(F)(F)F)c(F)c1)[C@H]1CN(C(=O)c2ccc(N3CCOCC3)nc2)C[C@@H]1c1ccc(Cl)c(Cl)c1` (racemic) [Example 27, {(3SR,4RS)-3-(3,4-Dichloro-phenyl)-4-[(3-fluoro-4-trifluoromethyl-benzyl)-methyl-amino]-pyrrolidin-1-yl}-(6-morpholin-4-yl-pyridin-3-yl)-methanone] is 5.7 nM; for `CN(Cc1ccc(C(F)(F)F)c(F)c1)[C@H]1CN(C(=O)c2ccc(F)nc2)C[C@@H]1c1ccc(Cl)c(Cl)c1` (racemic) [Example 28, {(3SR,4RS)-3-(3,4-Dichloro-phenyl)-4-[(3-fluoro-4-trifluoromethyl-benzyl)-methyl-amino]-pyrrolidin-1-yl}-(6-fluoro-pyridin-3-yl)-methanone] it is 35.6 nM.
With `COc1ccc(C(=O)N2C[C@H](c3ccc(Cl)c(Cl)c3)[C@@H](N(C)Cc3ccc(C(F)(F)F)c(F)c3)C2)cn1` (racemic) [Example 29, {(3SR,4RS)-3-(3,4-Dichloro-phenyl)-4-[(3-fluoro-4-trifluoromethyl-benzyl)-methyl-amino]-pyrrolidin-1-yl}-(6-methoxy-pyridin-3-yl)-methanone], the Ki came out at 8.4 nM.
`CN(Cc1ccc(C(F)(F)F)c(F)c1)[C@H]1CN(C(=O)c2ccc(-n3cccn3)nc2)C[C@@H]1c1ccc(Cl)c(Cl)c1` (racemic) [Example 30, {(3SR,4RS)-3-(3,4-Dichloro-phenyl)-4-[(3-fluoro-4-trifluoromethyl-benzyl)-methyl-amino]-pyrrolidin-1-yl}-(6-pyrazol-1-yl-pyridin-3-yl)-methanone]: the Ki was 2.8 nM.
`Cc1cc(C(=O)N2C[C@H](c3ccc(Cl)c(Cl)c3)[C@@H](N(C)Cc3ccc(C(F)(F)F)c(F)c3)C2)ccn1` (racemic) [Example 33, {(3SR,4RS)-3-(3,4-Dichloro-phenyl)-4-[(3-fluoro-4-trifluoromethyl-benzyl)-methyl-amino]-pyrrolidin-1-yl}-(2-methyl-pyridin-4-yl)-methanone]: the inhibitory constant (Ki) was 11.1 nM.
The figure for `CN(Cc1ccc(C(F)(F)F)c(F)c1)[C@H]1CN(C(=O)c2ccc(N3CCOCC3)cc2)C[C@@H]1c1ccc(Cl)c(Cl)c1` (racemic) [Example 38, {(3SR,4RS)-3-(3,4-Dichloro-phenyl)-4-[(3-fluoro-4-trifluoromethyl-benzyl)-methyl-amino]-pyrrolidin-1-yl}-(4-morpholin-4-yl-phenyl)-methanone] is 9 nM.
The figure for `CN(Cc1ccc(C(F)(F)F)c(F)c1)[C@H]1CN(C(=O)c2ccc(-n3cncn3)cc2)C[C@@H]1c1ccc(Cl)c(Cl)c1` (racemic) [Example 40, {(3SR,4RS)-3-(3,4-Dichloro-phenyl)-4-[(3-fluoro-4-trifluoromethyl-benzyl)-methyl-amino]-pyrrolidin-1-yl}-(4-[1,2,4]triazol-1-yl-phenyl)-methanone] is 2.7 nM; for `CN(Cc1ccc(C(F)(F)F)c(F)c1)[C@H]1CN(C(=O)c2ccc(-n3ccnc3)cc2)C[C@@H]1c1ccc(Cl)c(Cl)c1` (racemic) [Example 41, {(3SR,4RS)-3-(3,4-Dichloro-phenyl)-4-[(3-fluoro-4-trifluoromethyl-benzyl)-methyl-amino]-pyrrolidin-1-yl}-(4-imidazol-1-yl-phenyl)-methanone] it is 10.7 nM.
The figure for `CN(Cc1ccc(C(F)(F)F)c(F)c1)[C@H]1CN(C(=O)c2ccc(N3CCCS3(=O)=O)cc2)C[C@@H]1c1ccc(Cl)c(Cl)c1` (racemic) [Example 42, {(3SR,4RS)-3-(3,4-Dichloro-phenyl)-4-[(3-fluoro-4-trifluoromethyl-benzyl)-methyl-amino]-pyrrolidin-1-yl}-[4-(1,1-dioxo-1-6-isothiazolidin-2-yl)-phenyl]-methanone] is 33.5 nM.
